Source: US11059844B2, “Immune stimulating macrolides” (ISR IMMUNE SYSTEM REGULATION HOLDING AB (PUBL), priority 2017, dated 2021)
Converted amounts (≈) assume the structure as drawn.

Experiments:
Format in all cases: cell-based
[1] = system: Escherichia coli; assay: Minimum Inhibitory Concentration (MIC) assay; settings: anaerobic, 37° C., 18 h
Procedure: (§1) The bioactivity of macrolide compounds against 4 strains of common gut bacteria (Escherichia coli, Streptococcus salivarius subsp. salivarius, Lactobacillus casei and Bifidobacterium longum subsp. infantis) and common mammalian skin isolate Micrococcus luteus, was assessed using the Minimum Inhibitory Concentration (MIC) assay. Bacterial strains were purchased from DSMZ (Brunswick, Germany) except M. luteus which was obtained from NCIMB, and stored in 20% glycerol at −80° C. Stock solutions (100% DMSO) of positive controls (azithromycin and erythromycin), and of test compounds 1 and 2 were diluted in broth to working stock concentrations of 256 μg/ml (final assay testing concentration range 128 μg/ml to 0.00391 μg/ml). Stock solutions of all other compounds were diluted in broth to working stock concentrations of 128 μg/ml (final assay testing concentration range 64 μg/ml to 0.00195 μg/ml). Bacterial strains were cultivated in appropriate broth in an anaerobic chamber at 37° C., except for M. luteus which was incubated aerobically at 37° C. 18 h cultures were diluted in broth to an OD595 of 0.1 and then further diluted 1:10. In 96-well plates, in duplicate, 200 μl working stock of test compound was transferred to well 1 and serially diluted (1:2) in broth. 100 μl bacterial suspension was aliquoted into each well and mixed thoroughly. Appropriate sterility controls were included and plates were incubated in an anaerobic chamber, or aerobically (M. luteus) at 37° C. for 18 h. The MIC was determined to be the concentration of test compound in the first well with no visible growth.

[2] = system: Lactobacillus casei; assay: Minimum Inhibitory Concentration (MIC) assay; settings: Lacticaseibacillus casei; anaerobic, 37° C., 18 h
Procedure: as §1

[3] = system: Streptococcus salivarius subsp. salivarius; assay: Minimum Inhibitory Concentration (MIC) assay; settings: anaerobic, 37° C., 18 h
Procedure: as §1

[4] = system: Bifidobacterium longum subsp. infantis; assay: Minimum Inhibitory Concentration (MIC) assay; settings: anaerobic, 37° C., 18 h
Procedure: as §1

[5] = system: E. coli, S. salivarius, L. casei, B. longum or M. luteus; assay: Direct antibacterial activity, summary over all strains tested; settings: summary in words of Table 1
Procedure: as §1

[6] = system: Micrococcus luteus; assay: Minimum Inhibitory Concentration (MIC) assay; settings: aerobic, 37° C., 18 h
Procedure: as §1

[7] = target: T1, human TLR2 (Homo sapiens, UniProt O60603); assay: TLR2 reporter assay (HEK-293-TLR, SEAP); settings: for TLR2 stimulation: at concentrations up to 20 uM
T1 construct: host or cells: recombinant HEK-293-TLR cell lines
T1 sequence (O60603 21-784): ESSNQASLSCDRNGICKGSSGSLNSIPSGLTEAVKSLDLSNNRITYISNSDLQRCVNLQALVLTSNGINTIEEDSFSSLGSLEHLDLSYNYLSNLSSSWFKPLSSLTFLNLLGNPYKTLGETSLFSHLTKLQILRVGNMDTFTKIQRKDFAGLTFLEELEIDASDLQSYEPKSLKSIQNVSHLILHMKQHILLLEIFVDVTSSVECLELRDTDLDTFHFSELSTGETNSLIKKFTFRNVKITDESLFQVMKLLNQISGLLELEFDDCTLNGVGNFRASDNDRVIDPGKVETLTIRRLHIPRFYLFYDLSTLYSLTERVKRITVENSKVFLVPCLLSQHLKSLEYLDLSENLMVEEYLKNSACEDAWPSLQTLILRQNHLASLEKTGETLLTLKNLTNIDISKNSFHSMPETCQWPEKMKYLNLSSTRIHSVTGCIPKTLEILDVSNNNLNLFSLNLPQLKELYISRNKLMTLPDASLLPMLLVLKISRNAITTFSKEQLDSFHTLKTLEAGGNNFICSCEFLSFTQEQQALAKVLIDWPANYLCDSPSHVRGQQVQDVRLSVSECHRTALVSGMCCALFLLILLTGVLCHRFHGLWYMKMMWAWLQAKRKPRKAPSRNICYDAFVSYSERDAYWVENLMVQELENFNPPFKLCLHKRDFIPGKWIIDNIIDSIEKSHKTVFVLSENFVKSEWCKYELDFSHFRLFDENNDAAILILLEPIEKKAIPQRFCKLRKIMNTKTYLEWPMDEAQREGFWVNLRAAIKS
Procedure: Samples and controls were tested in duplicate on recombinant HEK-293-TLR cell lines using a cell reporter assay at Invivogen using their standard assay conditions. These cell lines functionally over-express human TLR2 protein as well as a reporter gene which is a secreted alkaline phosphatase (SEAP). The production of this reporter gene is driven by an NFkB inducible promoter. The TLR reporter cell lines activation results are given as optical density values (OD).
20 μl of each test article were used to stimulate the hTLR2 reporter cell lines in a 200 μl of final reaction volume. Samples were tested in duplicate, with at least two concentrations tested—20 uM and 10 uM.
Compounds were tested using a TLR2 reporter assay (see general methods) that measured for stimulation of the TLR2 receptor. Stimulatory effect was measured as an increase in optical density (OD) due to release of secreted alkaline phosphatase (SEAP) and is shown in table 4: […]

| SMILES | MIC [1] [µg/mL] | MIC [2] [µg/mL] | MIC [3] [µg/mL] | MIC [4] [µg/mL] | antibacterial activity against the bacterial strains tested [5] | MIC [6] [µg/mL] | OD after addition of 5 μM test article [7] [OD] | OD after addition of 10 μM test article [7] [OD] | OD after addition of 20 μM test article [7] [OD] | TLR2 stimulation [7] | lowest concentration at which TLR2 was stimulated (concentrations down to) [7] [µM] |
| --- | --- | --- | --- | --- | --- | --- | --- | --- | --- | --- | --- |
| CC[C@H]1OC(=O)[C@H](C)[C@@H](O[C@H]2CC(NC)[C@H](O)C(C)O2)[C@H](C)[C@@H](O)[C@](C)(O)C[C@@H](C)C(=O)[C@H](C)[C@@H](O)[C@H]1C (stereo partly drawn) [Compound 6] | > 64 | > 64 | > 64 | > 64 | no antibacterial activity | – | – | – | – | – | – |
| CC[C@H]1OC(=O)[C@H](C)[C@@H](O[C@H]2C[C@@](C)(OC)[C@@H](O)[C@H](C)O2)[C@H](C)[C@@H](O[C@@H]2O[C@H](C)C[C@H](N(C)C)[C@H]2O)[C@](C)(O)C[C@@H](C)C(=O)[C@H](C)[C@@H](O)[C@]1(C)O [Erythromycin, reference compound] | > 64 | < 0.25 | < 0.06 | > 64 | potent activity against a number of the strains | < 0.0625 | 0.035 | 0.065 | 0.045 | little or no stimulation | – |
| CC[C@H]1OC(=O)[C@H](C)[C@@H](O[C@H]2CC(N(C)C)[C@H](O)C(C)O2)[C@H](C)[C@@H](O)[C@](C)(O)C[C@@H](C)C(=O)[C@H](C)[C@@H](O)[C@H]1C (stereo partly drawn) [Compound 3] | – | – | – | – | no antibacterial activity | – | −0.043 | −0.015 | −0.026 | little or no stimulation | – |
| CC(O)[C@H]1OC(=O)[C@H](C)[C@@H](O[C@H]2C[C@@H](N(C)C)[C@H](O)[C@@H](C)O2)[C@H](C)[C@@H](O)[C@](C)(O)C[C@@H](C)C(=O)[C@H](C)[C@@H](O)[C@H]1C (stereo partly drawn) [Compound 9, 14-hydroxy angolosamine erythronolide B] | > 64 | > 64 | > 64 | > 64 | no antibacterial activity | – | – | – | – | – | – |
| CC[C@H]1OC(=O)[C@H](C)[C@@H](O[C@H]2C[C@@](C)(OC)[C@@H](O)[C@H](C)O2)[C@H](C)[C@@H](O[C@@H]2O[C@H](C)C[C@H](N(C)C)[C@H]2O)[C@](C)(O)C[C@@H](C)CN(C)[C@H](C)[C@@H](O)[C@]1(C)O [Azithromycin, reference compound] | < 8 | < 1 | < 0.5 | > 64 | potent activity against a number of the strains | 0.125 (≈ 0.167 µM) | 0.029 | 0.045 | 0.031 | little or no stimulation | – |
| CC[C@H]1OC(=O)[C@H](C)[C@@H](O[C@H]2CC(N(C)C)[C@H](O)C(C)O2)[C@H](C)[C@@H](O)[C@](C)(O)C[C@@H](C)N(C)C[C@H](C)[C@@H](O)[C@]1(C)O (stereo partly drawn) [Compound 17] | – | – | – | – | – | – | 0.054 | 0.155 | 0.234 | – | 10 |
| CC[C@H]1OC(=O)[C@H](C)[C@@H](O[C@H]2CC(N(C)C)[C@H](O)C(C)O2)[C@H](C)[C@@H](O)[C@](C)(O)C[C@@H](C)CN(C)[C@H](C)[C@@H](O)[C@H]1C (stereo partly drawn) [Compound 4] | > 64 | > 64 | > 64 | > 64 | no antibacterial activity | – | – | – | – | – | – |
| CC1O[C@@H](O[C@H]2[C@H](C)[C@@H](O)[C@](C)(O)C[C@@H](C)C(=O)[C@H](C)[C@@H](O)[C@@H](C)[C@@H](C)OC(=O)[C@@H]2C)CC(N(C)C)[C@@H]1O (stereo partly drawn) [Compound 8] | > 64 | > 64 | > 64 | > 64 | no antibacterial activity | – | – | – | – | – | – |
| CC1O[C@@H](O[C@H]2[C@H](C)[C@@H](O)[C@](C)(O)C[C@@H](C)C(=O)[C@H](C)[C@@H](O)[C@@H](C)[C@@H](C3CCC3)OC(=O)[C@@H]2C)CC(N(C)C)[C@@H]1O (stereo partly drawn) [Compound 5] | > 64 | > 64 | > 64 | > 64 | no antibacterial activity | – | – | – | – | – | – |
